Measured values published in patent publication US7067551B2, “Deacetylase inhibitors” (Novartis AG, priority 2000, dated 2006).
Blank lines part the entries; values can stand above or below the molecule they belong to.

Key:
[1] = tested on: HDA partially purified from H1299 cells; assay: HDA enzyme assay, 3H-acetate release from acetylated histone H4 peptide; assay type: biochemical, human; details: HDA partially purified from H1299, 37° C. 1.5 hr
Protocol: HDA is partially purified from H1299, human non-small cell lung carcinoma cells (obtained from American Type Culture Collection, 12301 Parklawn Drive, Rockville, Md. 20852, USA). Cells are grown to 70–80% confluence in RPMI media in the presence of 10% FCS, harvested and lysed by sonication. The lysate is centrifuged at 23,420 g for 10–15 min, the supernatant is applied to a Hiload 26/10 High performance Q-sepharose column (Amersham Pharmacia Biotech), and equilibrated with a buffer containing 20 mM Tris pH8.0, 1 mM EDTA, 10 mM NH4Cl2, 1 mM μ-Mercaptoethanol, 5% glycerol, 2 μg/mL aprotinin, 1 μg/mL leupeptin, and 400 mM PMSF. Proteins are eluted in 4 mL aliquots with a linear gradient from 0–500 mM NaCl in the above buffer at a flow rate of 2.5 mL/min. Each preparation of partially purified HDA enzyme is titrated to determine the optimal amount needed to obtain a signal to noise ratio of at least 5 to 1. […] The compounds are serially diluted in DMSO to generate stocks at 20-fold of the assay concentrations. Final concentrations of compounds in the assay are 10 μM, 2 μM, 400 nM, 80 nM, and 16 nM with the final percentage of DMSO in each enzyme reaction equaling 0.1%. Each concentration of compound is assayed in duplicate. The substrate used in the reaction is a peptide of amino acid sequence, [sequence], corresponding to the twenty-four N-terminal amino acids of human histone H4, biotinylated at the N-terminus and penta-acetylated, at each lysine residue with ^3H-acetate. To initiate the reaction, the substrate is diluted in 10 μL of Buffer A (100 mM Tris pH 8.0, 2 mM EDTA), added to the enzyme mixture and collected at the bottom of the deep well plate by centrifugation for 5 minutes at 1500 rpm. Following centrifugation, the mixture is incubated at 37° C. for 1.5 hr. The reaction is stopped by the addition of 20 μL of the Stop Buffer (0.5N HCl, 0.08M Acetic Acid). At this point, the assay proceeds to the robotic extraction phase or is frozen for several days at −80° C.
The extraction of enzymatically cleaved ^3H-acetate groups from the reaction mixture is achieved with the solvent TBME (t-butyl methyl ether) using the Tomtec Quadra 96 workstation. A program is written to add 200 μL of TBME to a 96 “deep well” plate. The workstation is programmed to aspirate 50 μL of air followed by 200 μL of TBME and finally another 25 μL of air, which is dispensed into the each well of the plate. The contents of the deep well were mixed thoroughly by pipetting 160 μL up and down 10 times. Before addition of TBME to the reaction mixture, it is necessary to “pre-wet” the pipette tips with TBME to prevent the solvent from dripping during the transfer to the deep well plate. The organic and aqueous phases in the deep well are separated by centrifugation at 1500 rpm for 5 min. Opti-Phase Supermix liquid scintillation cocktail (200 μL) (Wallac) is added to each well of the 96-well Trilux plate (Wallac). […] The Trilux plate is covered with clear film and read on a 1450 MicroBeta Trilux liquid scintillation and luminescence counter (Wallac) with a color/chemical quench and dpm correction.
In order to determine the IC50 values, the data are analyzed on a spreadsheet. The analysis requires a correction for the background luminescence that is accomplished by subtracting the dpm values of wells without ^3H substrate from the experimental wells. […]

[2] = tested on: H1299 (human lung carcinoma cell); assay: Monolayer cell growth inhibition, MTS assay; assay type: cell-based; details: NCI-H1299, H1299, 72 hours compound treatment, lactate salts
Description: (§1) Cell lines H1299 (human lung carcinoma cell) and HCT116 (colon tumor cell) are obtained from the American Type Culture Collection, Rockville, Md. The cell lines are free of Mycoplasma contamination (Rapid Detection System by Gen-Probe, Inc., San Diego, Calif.) and viral contamination (MAP testing by MA BioServices, Inc., Rockville, Md.). The cell lines are propagated and expanded in RPMI 1640 medium containing 10% heat-inactivated FBS (Life Technologies, Grand Island, N.Y.). Cell expansions for implantation are performed in cell factories (NUNC, purchased from Fisher Scientific, Springfield, N.J.). Cells are harvested at 50–90% confluency, washed once with HBSS (Hank's Balanced Salt Solution) containing 10% FBS, and suspended in 100% HBSS.
(§2) Cell proliferation is measured with a commercial MTS kit (Promega, Madision, Wis.) assay using an adaptation of published procedures, for example, that disclosed in Feasibility of drug screening with panels of human tumor cell lines using a microculture tetrazolium assay, Alley M C, et al., Cancer Res. 1988; 48:589–601. Cells are plated in 96-well tissue culture dishes, with top and bottom rows left empty. H1299 and HCT116 cells are suspended in complete media at a density of 5.3×10^3 and 3.6×10^3 cell/mL, respectively, and 190 μl are added per well. Each cell line is added to one half of the plate. Complete medium (200 μL) is added to the top and bottom rows. Twenty-four hours later, 10 μl of MTS solution is added to one of the plates to determine the activity at the time of compound addition (T0). The plate is incubated at 37° C. for 4 hours and the OD490 is measured on a Molecular Devices Thermomax at 490 nm using the Softmax program. The T0 plate serves as a reference for initial activity at the beginning of the experiment.
(§3) Five serial dilutions (1:4) of each compound are made in a 96-deep well plate with the highest concentrations on the edge of plate. Two cell lines are tested with two compounds per plate.0 Ten microliters of each of the five dilutions are added in triplicate and complete medium alone is added to columns six and seven. The plates are incubated at 37° C. for 72 hours. The MTS solution is added (as for the T0 plate) and read four hours later.
(§4) In order to analyze the data, the average background value (media alone) is subtracted from each experimental well; the triplicate values are averaged for each compound dilution. The following formulas are used to calculate percent growth.
Lactate salts of N-hydroxy-3-[4-[[[2-(1H-indol-3-yl)-ethyl]-amino]methyl]phenyl]-2E-2-propenamide (CMD1), N-hydroxy-3-[4-[[(2-hydroxyethyl)[2-(1H-indol-3-yl)ethyl]-amino]methyl]phenyl]-2E-2-propenamide (CMD2), N-hydroxy-3-[4-[[[2-(5-methoxy-1H-indol-3-yl)-ethyl]-amino]methyl]pheny]-2E-2-propenamide (CMD3), N-hydroxy-3-[4-[[[2-(5-fluoro-1H-indol-3-yl)-ethyl]-amino]methyl]phenyl]-2E-2-propenamide (CMD4), N-hydroxy-3-[4-[[[2-(benzofur-3-yl)-ethyl]-amino]methyl]phenyl]-2E-2-propenamide (CMD5) having a purity of higher than 95% are dissolved in pure dimethylsulfoxide (DMSO) to create a stock solution. The stock solution is diluted with 5% dextrose injection, USP, just prior to dosing.

[3] = tested on: HCT116 (colon tumor cell); assay: Monolayer cell growth inhibition, MTS assay; assay type: cell-based; details: Homo sapiens, HCT-116, HCT116, 72 hours compound treatment, lactate salts
Description: as §1, §2, §3, §4
The stock solution is diluted with 5% dextrose injection, USP, just prior to dosing.

[4] = tested on: HCT116; assay: Annexin V / propidium iodide staining (apoptosis), fluorescence microscopy; assay type: cell-based, human; details: for cells exhibiting cell surface staining with annexin V: HCT116, 24 hour exposure; for cells staining with annexin V and/or propidium iodide: HCT116, 48 hour treatment
Protocol: (§5) Annexin V binding was used as a marker for the early stages of apoptosis. A549,HCT116 and Normal Dermal Human Fibroblasts (NDHF) cells are treated separately with four compounds (CMD1, CMD2, CMD3 and CMD4) for 24 or 48 hours, stained with annexin V and compared to cells treated similarly with vehicle (DMSO). Cells are examined by fluorescence microscopy. […] Viability is assessed by the counterstain, propidium iodide. Cells detected by red fluorescence are not viable.

[5] = tested on: A549; assay: as above; assay type: cell-based, human; details: for cells exhibiting cell surface staining with annexin V: A549, 24 hour exposure; for cells staining with annexin V and/or propidium iodide: A549, 48 hour treatment
Protocol: as §5

[6] = tested on: Normal Dermal Human Fibroblasts (NDHF); assay: as above; assay type: cell-based; details: NDHF cells
Protocol: as §5

[7] = tested on: HCT116 colon tumor cell line; assay: HCT116 tumor xenograft in athymic mice, antitumor activity; assay type: in vivo; details: 34th day; for Δ MEAN TUMOR VOLUME: ± SEM
Protocol: as §1, with “The A549 non-small cell” for “Cell lines H1299 (human”, “human” for “carcinoma cell) and HCT116 (colon”, “cell line is purchased” for “cell) are obtained”, “line is” for “lines are”, “HBSS” for “HBSS (Hank's Balanced Salt Solution)”
(§6) Outbred athymic (nu/nu) female mice (“Hsd:Athymic Nude-nu” from Harlan Sprague Dawley, Indianapolis, Ind.) are anesthetized with Metofane (Mallinckrodt Veterinary, Inc., Mundelein, Ill.), and 100 μL of the cell suspension containing 1×10^7 cells is injected subcutaneously into the right axillary (lateral) region of each animal. Tumors are allowed to grow for about 20 days until a volume of ˜100 mm^3 is achieved. At this point, mice bearing tumors with acceptable morphology and size are sorted into groups of eight for the study. The sorting process produces groups balanced with respect to mean and range of tumor size. Antitumor activity is expressed as % T/C, comparing differences in tumor volumes for treatment group (T) to vehicle control group (C).
(§7) CMD1 is administered intravenously, once daily 5×/week for three weeks, at doses of 10, 25, 50, or 100 mg/kg. The final DMSO concentration is 10%. Each test group has eight mice. Tumors are measured, and individual animal body weights recorded.
(§8) Example B3 is repeated except the HCT116 colon tumor cell line is used in place of the A549 cell line. The HCT116 cell line is also obtained from American Type Culture Collection, Rockville, Md., and the cell line is free of Mycoplasma contamination and viral contamination.
(§9) Example B4 is repeated except the HCT116 colon tumor cell line is used in place of the A549 cell line. The HCT116 is also obtained from American Type Culture Collection, Rockville, Md., and the cell line is free of Mycoplasma contamination and viral contamination.

[8] = tested on: HCT116 colon tumor cell line; assay: as above; assay type: in vivo; details: Table B5, HCT116, 50 mg/kg i.v., 34th day, seven mice
[9] = tested on: A549 non-small cell lung human tumor cell line; assay: A549 tumor xenograft in athymic mice, antitumor activity; assay type: in vivo; details: for Δ MEAN TUMOR VOLUME: ± SEM
Protocol: as §1, with “The A549 non-small cell” for “Cell lines H1299 (human”, “human” for “carcinoma cell) and HCT116 (colon”, “cell line is purchased” for “cell) are obtained”, “line is” for “lines are”, “HBSS” for “HBSS (Hank's Balanced Salt Solution)”
as §6, §7
(§10) Example B3 repeated except CMD2 is used.

[10] = Body weight change of A549 tumor-bearing athymic mice; assay type: in vivo; details: ± SEM
Protocol: as §6, §7, §10

[11] = Body weight change of HCT116 tumor-bearing athymic mice; assay type: in vivo; details: 34th day, ± SEM
Protocol: as §6, §7, §8, §9

[12] = Table B5, HCT116, 100 mg/kg i.v.
[13] = A549, 10 mg/kg i.v. once daily 5×/week for three weeks, 41st day
[14] = A549, 25 mg/kg i.v. once daily 5×/week for three weeks, 41st day
[15] = A549, 50 mg/kg i.v. once daily 5×/week for three weeks, 41st day
[16] = A549, 100 mg/kg i.v. once daily 5×/week for three weeks, 41st day
[17] = Table B4, A549, 25 mg/kg, Example B3 repeated
[18] = Table B4, A549, 50 mg/kg, Example B3 repeated

SMILES: COc1ccc2[nH]cc(CCNCc3ccc(/C=C/C(=O)NO)cc3)c2c1 [CMD3, N-hydroxy-3-[4-[[[2-(5-methoxy-1H-indol-3-yl)-ethyl]-amino]methyl]pheny]-2E-2-propenamide]
IC50 [1]: 14 nM | IC50 [2]: 580 nM | IC50 [3]: 30 nM | cells exhibiting cell surface staining with annexin V [4]: the majority | cells staining with annexin V and/or propidium iodide [4]: the majority | cells exhibiting cell surface staining with annexin V [5]: A small percentage | cells staining with annexin V and/or propidium iodide [5]: the majority | annexin V staining ([6]; 24 hour exposure): do not show noticeable annexin V staining | annexin V staining ([6]; 48 hour): limited annexin V staining

SMILES: O=C(/C=C/c1ccc(CNCCc2coc3ccccc23)cc1)NO [CMD5, N-hydroxy-3-[4-[[[2-(benzofur-3-yl)-ethyl]-amino]methyl]phenyl]-2E-2-propenamide]
IC50 [1]: 16 nM | IC50 [2]: 180 nM | IC50 [3]: 30 nM

SMILES: Nc1ccccc1NC(=O)c1ccc(CNC(=O)OCc2cccnc2)cc1 [CMDC, reference compound]
IC50 [2]: 6800 nM

SMILES: O=C(/C=C/c1ccc(CN(CCO)CCc2c[nH]c3ccccc23)cc1)NO [CMD2, N-hydroxy-3-[4-[[(2-hydroxyethyl)[2-(1H-indol-3-yl)ethyl]-amino]methyl]phenyl]-2E-2-propenamide]
IC50 [1]: 63 nM | IC50 [2]: 150 nM | IC50 [3]: 10 nM | cells exhibiting cell surface staining with annexin V [4]: the majority | cells staining with annexin V and/or propidium iodide [4]: the majority | cells exhibiting cell surface staining with annexin V [5]: A small percentage | cells staining with annexin V and/or propidium iodide [5]: the majority | % T/C ([7]; Table B6, HCT116, 10 mg/kg): 56% | Δ MEAN TUMOR VOLUME ([7]; Table B6, HCT116, 10 mg/kg): 422 ± 75 mm^3 | % T/C ([7]; Table B6, HCT116, 25 mg/kg): 40% | Δ MEAN TUMOR VOLUME ([7]; Table B6, HCT116, 25 mg/kg): 305 ± 47 mm^3 | % T/C ([7]; Table B6, HCT116, 50 mg/kg): 13% | Δ MEAN TUMOR VOLUME ([7]; Table B6, HCT116, 50 mg/kg): 97 ± 30 mm^3 | % T/C ([7]; Table B6, HCT116, 100 mg/kg): 17% | Δ MEAN TUMOR VOLUME ([7]; Table B6, HCT116, 100 mg/kg): 132 ± 30 mm^3 | annexin V staining ([6]; 24 hour exposure): do not show noticeable annexin V staining | % T/C [9, 17]: 27% | Δ MEAN TUMOR VOLUME [9, 17]: 37 ± 16 mm^3 | % T/C [9, 18]: 21% | Δ MEAN TUMOR VOLUME [9, 18]: 29 ± 15 mm^3 | Δ % BODY WEIGHT [10, 17]: −4.2 ± 2.5% | Δ % BODY WEIGHT [10, 18]: −2.9 ± 1.5% | Δ % BODY WEIGHT ([11]; Table B6, HCT116, 10 mg/kg): −10.2 ± 0.5% | Δ % BODY WEIGHT ([11]; Table B6, HCT116, 25 mg/kg): −7.0 ± 0.2% | Δ % BODY WEIGHT ([11]; Table B6, HCT116, 50 mg/kg): −7.3 ± 0.3% | Δ % BODY WEIGHT ([11]; Table B6, HCT116, 100 mg/kg): −9.4 ± 0.4%

Continued, in another order:

IC50 [1]: 14 nM | IC50 [2]: 280 nM | IC50 [3]: 30 nM
SMILES: O=C(/C=C/c1ccc(CNCCc2c[nH]c3ccc(F)cc23)cc1)NO [CMD4, N-hydroxy-3-[4-[[[2-(5-fluoro-1H-indol-3-yl)-ethyl]-amino]methyl]phenyl]-2E-2-propenamide]
cells exhibiting cell surface staining with annexin V [4]: the majority | cells staining with annexin V and/or propidium iodide [4]: the majority | cells exhibiting cell surface staining with annexin V [5]: A small percentage | cells staining with annexin V and/or propidium iodide [5]: the majority | annexin V staining ([6]; 24 hour exposure): do not show noticeable annexin V staining

IC50 [1]: 32 nM | IC50 [2]: 400 nM | IC50 [3]: 30 nM
SMILES: O=C(/C=C/c1ccc(CNCCc2c[nH]c3ccccc23)cc1)NO [CMD1, N-hydroxy-3-[4-[[[2-(1H-indol-3-yl)-ethyl]-amino]methyl]phenyl]-2E-2-propenamide]
cells exhibiting cell surface staining with annexin V [4]: the majority | cells staining with annexin V and/or propidium iodide [4]: the majority | cells exhibiting cell surface staining with annexin V [5]: A small percentage | cells staining with annexin V and/or propidium iodide [5]: the majority | % T/C [7, 12]: 18% | Δ MEAN TUMOR VOLUME [7, 12]: 140 ± 38 mm^3 | annexin V staining ([6]; 24 hour exposure): do not show noticeable annexin V staining | % T/C [8]: 25% | Δ MEAN TUMOR VOLUME ([8]; ± SEM): 186 ± 40 mm^3 | % T/C [9, 13]: 32% | Δ MEAN TUMOR VOLUME [9, 13]: 121 ± 27 mm^3 | % T/C [9, 14]: 20% | Δ MEAN TUMOR VOLUME [9, 14]: 77 ± 32 mm^3 | % T/C [9, 15]: 15% | Δ MEAN TUMOR VOLUME [9, 15]: 57 ± 10 mm^3 | % T/C [9, 16]: 7% | Δ MEAN TUMOR VOLUME [9, 16]: 28 ± 25 mm^3 | Δ % BODY WEIGHT [10, 13]: +1.3 ± 0.3% | Δ % BODY WEIGHT [10, 14]: −0.9 ± 0.3% | Δ % BODY WEIGHT [10, 15]: −0.4 ± 0.3% | Δ % BODY WEIGHT [10, 16]: +0.4 ± 0.3% | Δ % BODY WEIGHT ([11]; Table B5, HCT116, 50 mg/kg i.v., seven mice): −7.4 ± 0.8% | Δ % BODY WEIGHT [11, 12]: −3.2 ± 0.4%
